From patent US20220281830A1, “SALT” (NIPPON SHINYAKU CO., LTD., priority 2019, published 2022) come the findings set out here.

Read-outs that look alike come from different tables or passages of the source.

Data set [1] in a line: Rat in vivo study: plasma pharmacokinetics of MRE-269 after oral capsule dosing. Details: species or system Sprague-Dawley rat. The procedure: Qualicaps, Nara, Japan) and given orally to male Sprague-Dawley rat (Japan SLC, Sizuoka, Japan) at a dose level of 1 mg/capsule/body. […] • The concentration of MRE-269 in plasma sample was determined by high performance liquid chromatography (HPLC) tandem mass spectrometry (LC-MS/MS). […] For LC-MS/MS, a Nexera HPLC system (Shimadzu, Kyoto, Japan) equipped with an InertSustain C18 column (2-μm particle size; 2.1 mm i.d.×50 mm; GL Science) connected to a TQ4500 or TQ5500 tandem mass spectrometer (Sciex, Framingham, Mass.) was used. The HPLC mobile phase was 0.1% formic acid (solvent A) and acetonitrile (solvent B). A gradient was run at 85% solvent B in 2.5 min at a flow rate of 0.4 mL/min and 40° C. Each analyte detected was quantified in positive ion multiple reaction monitoring mode by applying the following precursor-to-product transitions: […] • The pharmacokinetic parameters were calculated with Phoenix WinNonlin version 8.1.0 (Certara Princeton, NJ). Relative bioavailability (BA) to MRE-269 was calculated according to the following equation. Relative BA (%)=(AUC0-24(each salt)/(AUC0-24(MRE-269, mean)×100

A short description of data set [2]: Thermodynamic stability of the free-form crystal. It is filed as physicochemical. The conditions noted are these: free form produced according to Example 42 of PTL 1. The source says:
A method for producing Compound B is disclosed in Example 42 of PTL 1. […] Thus, the present invention was completed.

[3] abbreviates: MRE-269 in plasma, male Sprague-Dawley rat, oral, HPMC capsule, 1 mg/capsule/body.

In data set [1] (rat, in vivo, po), `CC(C)N(CCCCOCC(=O)O)c1cnc(-c2ccccc2)c(-c2ccccc2)n1.O=S(=O)(O)CCS(=O)(=O)O` [1,2-Ethanedisulfonate salt (Pattern A), 1,2-Ethanedisulfonate salt of 2-[4-[(5,6-diphenylpyrazin-2-yl)-propan-2-ylamino]butoxy]acetic acid] returned a t1/2 of 3.99 ± 2.01 h and a tmax of 3.10 ± 2.30 h.

In turn, `CC(C)N(CCCCOCC(=O)[O-])c1cnc(-c2ccccc2)c(-c2ccccc2)n1.CC(C)N(CCCCOCC(=O)[O-])c1cnc(-c2ccccc2)c(-c2ccccc2)n1.[Ca+2]` [Calcium salt (Pattern 1), Calcium salt of 2[4-[(5,6-diphenylpyrazin-2-yl)-propan-2-ylamino]butoxy]acetic acid] yielded a tmax in data set [1] (rat, in vivo, po) of 7.50 ± 3.79 h.

The molecule `CC(C)N(CCCCOCC(=O)O)c1cnc(-c2ccccc2)c(-c2ccccc2)n1` [MRE-269, 2-(4-((5,6-diphenylpyrazin-2-yl)(isopropyl)amino)butoxy)acetic acid, reference compound] had an AUC(0-t) in data set [1] (setting [3]) of 5620 ± 1920 ng·h/mL. The Cmax in data set [1] (MRE-269 in plasma, male Sprague-Dawley rat, oral, HPMC capsule, 1 mg/capsule/body, read-out: Cmax) was 475 ± 142 ng/mL. Besides, the tmax in data set [1] (MRE-269 in plasma, male Sprague-Dawley rat, oral, HPMC capsule, 1 mg/capsule/body, read-out: tmax) came out at 6.5 ± 3 h.

Consider `CC(C)N(CCCCOCC(=O)[O-])c1cnc(-c2ccccc2)c(-c2ccccc2)n1.[K+]` [Potassium salt, Potassium salt of 2-[4-[(5,6-diphenylpyrazin-2-yl)-propan-2-ylamino]butoxy]acetic acid], for which, in data set [1] (rat, in vivo, po), the t1/2 turned out to be 8.96 ± 8.00 h and the tmax turned out to be 3.25 ± 3.20 h.

Consider `CC(C)N(CCCCOCC(=O)[O-])c1cnc(-c2ccccc2)c(-c2ccccc2)n1.[Na+]` [Sodium salt, Sodium salt of 2-[4-[(5,6-diphenylpyrazin-2-yl)-propan-2-ylamino]butoxy]acetic acid], for which the tmax in data set [1] (rat, in vivo, po) came to 7.50 ± 1.91 h.

Take `CC(C)N(CCCCOCC(=O)O)c1cnc(-c2ccccc2)c(-c2ccccc2)n1.NC(CO)(CO)CO` [Tromethamine salt, Tromethamine salt of 2-[4-[(5,6-diphenylpyrazin-2-yl)-propan-2-ylamino]butoxy]acetic acid]: in data set [1] (setting [3]), the AUC0-last was found to be 7170 ± 2320 ng·h/mL, the “AUC0-∞” value was 6520 ± 1890 ng·h/mL, the Cmax came out at 949 ± 555 ng/mL and the t1/2 stood at 3.48 ± 0.43 h. Further, the tmax in data set [1] (setting [3]) stood at 4.00 ± 3.94 h. Moreover, the “relative BA” value in data set [1] (relative to MRE-269: AUC0-24(each salt)/AUC0-24(MRE-269, mean)×100, rat, oral, 1 mg/capsule/body) amounted to 128 ± 41%.

Turning to `CC(C)N(CCCCOCC(=O)O)c1cnc(-c2ccccc2)c(-c2ccccc2)n1` [form-III crystal, 2-(4-((5,6-diphenylpyrazin-2-yl)(isopropyl)amino)butoxy)acetic acid], the thermodynamic stability entry in data set [2] is “thermodynamically unstable”.

Usually AUC(0-t) stands for exposure summed from dosing to a finite time, without extrapolation to infinity. A high value points to high exposure. In general, Cmax refers to the maximum level reached in the sampled fluid or tissue.
